According to ChEMBL document CHEMBL2413077, “Anion inhibition studies of the α-carbonic anhydrase from the protozoan pathogen Trypanosoma cruzi, the causative agent of Chagas disease” (Bioorg Med Chem, 2013):

Target: Trypanosoma cruzi
Assay type: organism-based, CL Brener
Conditions: sf9

| SMILES | Ki |
| --- | --- |
| O=NO [SODIUM NITRITE] | 700 µM |
| O=[Se](=O)(O)O [SODIUM SELENATE] | 660 µM |
| [Cl-].[Na+] [SODIUM CHLORIDE] | 810 µM |
| OB(O)c1ccccc1 [PHENYLBORONIC ACID] | 860 µM |
| [Br-].[Na+] [SODIUM BROMIDE] | 730 µM |
| O=BOB(O)OB(O)OB=O [SODIUM TETRABORATE] | 24300 µM |
| [F-].[Na+] [SODIUM FLUORIDE] | 900 µM |
| O=[N+]([O-])[O-].[Na+] [SODIUM NITRATE] | 770 µM |
| NS(N)(=O)=O [SULFAMIDE] | 120 µM |
| [I-].[Na+] [SODIUM IODIDE] | 44 µM |
| O=S(=O)(O)OOS(=O)(=O)O [SODIUM PERSULFATE] | 840 µM |
| O=S(=O)(O)OS(=O)(=O)O [SODIUM PYROSULFATE] | 760 µM |
| O=[As](O)(O)c1ccccc1 [PHENYLARSONIC ACID] | 620 µM |
| O=S(=O)(O)ONOS(=O)(=O)O [SODIUM IMINODISULFATE] | 7100 µM |
| N#C[SeH] [SODIUM SELENOCYANATE] | 780 µM |
| [O-][Cl+3]([O-])([O-])O [SODIUM PERCHLORATE] | > 100000 µM |
| N#CO [SODIUM CYANATE] | 80 µM |
| O=C([O-])[O-].[Na+].[Na+] [SODIUM CARBONATE] | 690 µM |
| O=S(=O)([O-])[O-].[Na+].[Na+] [SODIUM SULFATE ANHYDROUS] | 6900 µM |
| O=C([O-])O.[Na+] [SODIUM BICARBONATE] | 580 µM |
| F[B-](F)(F)F.[Na+] [SODIUM TETRAFLUOROBORATE] | > 100000 µM |
| S [SODIUM HYDROSULFIDE] | 78 µM |
| O=S([O-])O.[Na+] [SODIUM BISULFITE] | 910 µM |
| [N-]=[N+]=[N-] [SODIUM AZIDE] | 1120 µM |
| CCN(CC)C(=S)S [DITIOCARB SODIUM] | 5 µM |
| NS(=O)(=O)O [SULFAMATE] | 10600 µM |
| O=[Te](=O)(O)O [SODIUM TELLURATE] | 710 µM |
